68 compounds from patent publication US20160368895A1, “PULMONARY HYPERTENSION TREATING AGENT” (THE UNIVERSITY OF TOKYO, priority 2013, published 2016) can be followed below.

The target of one test is T1, human PGI2 receptors (hIP) (Homo sapiens, UniProt P43119).
T1 construct: expressed in transfected cells; host or cells: CHO-K1
T1 sequence (P43119 whole entry): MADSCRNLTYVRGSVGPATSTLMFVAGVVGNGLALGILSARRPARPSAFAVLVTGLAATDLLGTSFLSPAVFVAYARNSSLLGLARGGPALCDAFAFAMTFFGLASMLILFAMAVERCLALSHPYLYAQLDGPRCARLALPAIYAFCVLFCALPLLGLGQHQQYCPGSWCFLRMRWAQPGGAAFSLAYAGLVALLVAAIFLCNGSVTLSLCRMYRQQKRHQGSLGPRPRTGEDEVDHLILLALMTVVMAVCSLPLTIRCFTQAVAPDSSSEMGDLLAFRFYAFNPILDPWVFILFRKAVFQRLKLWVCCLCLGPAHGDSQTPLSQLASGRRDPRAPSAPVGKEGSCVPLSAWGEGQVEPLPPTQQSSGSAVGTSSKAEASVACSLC
Nature of the test: Method C: effect on epoprostenol-cAMP production curve in CHO/hIP cells (left shift value). The class given is cell-based. To be noted: Table 5, concentration of test compound that halves the EC50 of epoprostenol. As to the method:
The effect of a test compound on the cAMP production curve with respect to the IP agonist epoprostenol (manufactured by GlaxoSmithKline) was investigated using CHO-K1 cells (CHO/hIP cells) in which human PGI2 receptors (hIP) are stably expressed.
An amount of 5 μL of a mixture (diluted in F-12 culture medium (manufactured by GIBCO) including 0.1% BSA) of epoprostenol dissolved in DMSO and a test compound dissolved in DMSO was dispensed in advance into a 384-well black microplate, and 5 μL of CHO/hIP cells suspended at a concentration of 1.4×10^6 cells/mL in F-12 culture medium including 0.1% BSA were added to the microplate. After 40 minutes of incubation at room temperature, the amount of cAMP was measured using a cAMP assay kit (cAMP HiRange, manufactured by Cisbio Bioassays). Specifically, 5 μL of a cAMP-d2 solution (including a cell lysate) from the kit were added and the reaction was stopped, then 5 μL of a fluorescence-labeled cAMP antibody solution from the kit were added and incubation was performed for 1 hour at room temperature, after which fluorescence was measured using a PHERAstar plate reader (manufactured by BMG) in HTRF (registered trademark) mode. The amount of cAMP in each well was calculated from a cAMP calibration curve obtained using a standard sample, and an epoprostenol-cAMP production curve for the presence of various concentrations of the test compound was created.
Consider `COc1ccsc1C(c1nnnn1C(C)(C)C)N1CCc2sccc2C1` (centres unmarked) [Example 72, 5-((1-(tert-butyl)-1H-tetrazol-5-yl)(3-methoxythiophen-2-yl)methyl)-4,5,6,7-tetrahydrothieno[3,2-c]pyridine], for which the left shift value stood at 3.2 µM.

The next test has as its target T1, human PGI2 receptors (hIP). Description: Method A: positive allosteric modulator activity, cAMP in CHO/hIP cells with 100 pM iloprost. The class given is cell-based. Particulars: cAMP relative to 100 pM iloprost alone, test compound 5 uM. The method, then: The positive allosteric modulator activity of a test compound was measured as a change in the amount of intracellular cyclic AMP (cAMP) in the presence of 100 pM of the IP agonist iloprost (manufactured by CAYMAN CHEMICAL), using CHO-K1 cells (CHO/hIP cells) in which human PGI2 receptors (hIP) are stably expressed.
An amount of 5 μL of a mixture (diluted in F-12 culture medium (manufactured by GIBCO) including 0.1% BSA) of iloprost dissolved in DMSO and a test compound dissolved in DMSO was dispensed in advance into a 384-well black microplate, and 5 μL of CHO/hIP cells suspended at a concentration of 1.6×10^6 cells/mL in F-12 culture medium including 0.1% BSA were added to the microplate. After 40 minutes of incubation at room temperature, the amount of cAMP was measured using a cAMP assay kit (cAMP HiRange, manufactured by Cisbio Bioassays). Specifically, 5 μL of a cAMP-d2 solution (including a cell lysate) from the kit were added and the reaction was stopped, then 5 μL of a fluorescence-labeled cAMP antibody solution from the kit was added and incubation was performed for 1 hour at room temperature, after which fluorescence was measured using a PHERAstar plate reader (manufactured by BMG) in HTRF (registered trademark) mode. The amount of cAMP in each well was calculated from a cAMP calibration curve obtained using a standard sample, and the activity of each test compound is noted below as a ratio T/C (%) based on the amount of cAMP for 100 pM of isoprost alone. All of the compounds included in this table were purchased from Asinex Corporation.
Turning to `Cc1ccc(S(=O)(=O)Cn2nnnc2C(c2ccc(O)cc2)N2CCc3ccccc3C2)cc1` (centres unmarked), the T/C % stood at 104%. `CC(C)(C)n1nnnc1C(c1ccccc1)N1CCc2ccccc2C1` (centres unmarked) [drawing 104] returned a T/C % of 143%. In turn, `CC(C)(C)n1nnnc1C(c1ccc(Cl)cc1)N1CCc2ccccc2C1` (centres unmarked) [drawing 118] registered a T/C % of 113%. `COc1ccc(C(c2nnnn2Cc2ccccc2)N2CCc3ccccc3C2)cc1OC` (centres unmarked) registered a T/C % of 90%. The compound `Cc1ccc(C(c2nnnn2C(C)(C)C)N2CCc3ccccc3C2)cc1` (centres unmarked) [drawing 143] yielded a T/C % of 112%.

Staying with this test, now noted: cAMP relative to 100 pM iloprost alone, test compound 10 uM.
Turning to `COCCn1nnnc1C(c1ccc(OC)c(OC)c1)N1CCc2ccccc2C1` (centres unmarked), the T/C % turned out to be 98%.

As to `Oc1ccc(C(c2nnnn2C2CCCCC2)N2CCc3ccccc3C2)cc1` (centres unmarked), the T/C % turned out to be 104%. Consider `c1ccc(Cn2nnnc2C(c2ccccc2)N2CCc3ccccc3C2)cc1` (centres unmarked), for which the T/C % worked out at 112%. `COc1cc(C(c2nnnn2Cc2ccc(F)cc2)N2CCc3ccccc3C2)ccc1O` (centres unmarked): the T/C % is reported as 91%. On the same count and under the same terms, the result for `COc1ccc(OC)c(C(c2nnnn2Cc2ccc(C)cc2)N2CCc3ccccc3C2)c1` (centres unmarked) reads 91%; that for `Cc1ccc(C(c2nnnn2Cc2ccccc2)N2CCc3ccccc3C2)cc1` (centres unmarked) [drawing 121], 112%. Turning to `CCC(C)(C)n1nnnc1C(c1ccc(O)c(OC)c1)N1CCc2ccccc2C1` (centres unmarked), the T/C % is given as 122%. Still for that read-out and setting: the result for `Cc1ccc(C(c2nnnn2C2CCCC2)N2CCc3ccccc3C2)cc1` (centres unmarked) reads 105%. Compound `COCCn1nnnc1C(c1ccc(O)cc1OC)N1CCc2ccccc2C1` (centres unmarked) had a T/C % of 97%. Same read-out and setting: the result for `Cc1ccc(C(c2nnnn2Cc2ccccc2)N2CCc3ccccc3C2)cc1` (centres unmarked) [drawing 140] reads 102%.

`Oc1ccc(C(c2nnnn2Cc2ccc(F)cc2)N2CCc3ccccc3C2)cc1` (centres unmarked): the T/C % was 113%. Compound `CCC(C)(C)n1nnnc1C(c1ccc(Cl)cc1)N1CCc2ccccc2C1` (centres unmarked) returned a T/C % of 148%.

With `COCCn1nnnc1C(c1cc(OC)ccc1OC)N1CCc2ccccc2C1` (centres unmarked), the T/C % came out at 90%. As to `COc1ccc(C(c2nnnn2CCc2ccccc2)N2CCc3ccccc3C2)c(OC)c1` (centres unmarked), the T/C % is on record as 106%. The same measure, in the same setting: the result for `COc1ccc(C(c2nnnn2C2CCCCC2)N2CCc3ccccc3C2)c(OC)c1` (centres unmarked) reads 113%; that for `Oc1ccc(C(c2nnnn2C2CCCC2)N2CCc3ccccc3C2)cc1` (centres unmarked), 105%. Still for that read-out and setting: the result for `COc1cc(C(c2nnnn2C2CCCCC2)N2CCc3ccccc3C2)ccc1O` (centres unmarked) reads 97%. Still for that read-out and setting: in the case of `COc1ccc(C(c2nnnn2CCc2ccccc2)N2CCc3ccccc3C2)cc1OC` (centres unmarked) it was 106%; in that of `COc1ccc(Cn2nnnc2C(c2ccc(OC)cc2)N2CCc3ccccc3C2)cc1` (centres unmarked), 105%; in that of `COc1ccc(OC)c(C(c2nnnn2C(C)(C)C)N2CCc3ccccc3C2)c1` (centres unmarked), 100%. In turn, `CN(C)c1ccc(C(c2nnnn2C2CCCC2)N2CCc3ccccc3C2)cc1` (centres unmarked) gave a T/C % of 103%. `Cc1ccc(C(c2nnnn2C2CCCCC2)N2CCc3ccccc3C2)cc1` (centres unmarked): the T/C % is recorded as 100%. `c1ccc(CCn2nnnc2C(c2ccccc2)N2CCc3ccccc3C2)cc1` (centres unmarked) [drawing 142] gave a T/C % of 111%. As for `COc1ccc(Cn2nnnc2C(c2ccccc2)N2CCc3ccccc3C2)cc1` (centres unmarked), the T/C % was 104%. With `COc1ccc(OC)c(C(c2nnnn2C2CCCCC2)N2CCc3ccccc3C2)c1` (centres unmarked), the T/C % is listed as 82%. Still for that read-out and setting: in the case of `COc1ccc(C(c2nnnn2C2CCCCC2)N2CCc3ccccc3C2)cc1OC` (centres unmarked) it was 87%; in that of `COc1ccc(C(c2nnnn2C(C)(C)C)N2CCc3ccccc3C2)cc1OC` (centres unmarked), 103%. On to `COCCn1nnnc1C(c1ccccc1OC)N1CCc2ccccc2C1` (centres unmarked), for which the T/C % stood at 107%. Compound `COc1ccc(C(c2nnnn2Cc2ccccc2)N2CCc3ccccc3C2)c(OC)c1` (centres unmarked) had a T/C % of 103%. Same read-out and setting: the result for `CCC(C)(C)n1nnnc1C(c1ccc(F)cc1)N1CCc2ccccc2C1` (centres unmarked) reads 155%; that for `COc1ccc(OC)c(C(c2nnnn2Cc2ccccc2)N2CCc3ccccc3C2)c1` (centres unmarked), 90%; that for `CCC(C)(C)n1nnnc1C(c1ccc(OC)c(OC)c1)N1CCc2ccccc2C1` (centres unmarked), 103%. The same measure, in the same setting: in the case of `COc1ccc(C(c2nnnn2CS(=O)(=O)c2ccc(C)cc2)N2CCc3ccccc3C2)cc1` (centres unmarked) it was 101%; in that of `Clc1ccc(C(c2nnnn2C2CCCC2)N2CCc3ccccc3C2)cc1` (centres unmarked), 110%; in that of `Cc1ccc(S(=O)(=O)Cn2nnnc2C(c2ccc(F)cc2)N2CCc3ccccc3C2)cc1` (centres unmarked), 93%. With `Cc1ccc(C(c2nnnn2Cc2ccccc2)N2CCc3ccccc3C2)cc1` (centres unmarked) [drawing 151], the T/C % came to 103%.

The compound `COc1ccc(C(c2nnnn2CCc2ccccc2)N2CCc3ccccc3C2)cc1` (centres unmarked) had a T/C % of 114%. Regarding `CCC(C)(C)n1nnnc1C(c1ccccc1)N1CCc2ccccc2C1` (centres unmarked), the T/C % worked out at 202%.

`COc1ccc(C(c2nnnn2Cc2ccccc2)N2CCc3ccccc3C2)cc1` (centres unmarked) displayed a T/C % of 110%. Same read-out and setting: in the case of `COc1ccc(C(c2nnnn2Cc2ccc(C)cc2)N2CCc3ccccc3C2)cc1` (centres unmarked) it was 112%. The same measure, in the same setting: in the case of `COc1ccc(OC)c(C(c2nnnn2CCc2ccccc2)N2CCc3ccccc3C2)c1` (centres unmarked) it was 78%. The same measure, in the same setting: in the case of `Fc1ccc(C(c2nnnn2C2CCCCC2)N2CCc3ccccc3C2)cc1` (centres unmarked) it was 104%; in that of `COc1ccc(OC)c(C(c2nnnn2C2CCCC2)N2CCc3ccccc3C2)c1` (centres unmarked), 92%; in that of `CCC(C)(C)n1nnnc1C(c1ccccc1OC)N1CCc2ccccc2C1` (centres unmarked), 215%. In turn, `c1ccc(C(c2nnnn2C2CCCCC2)N2CCc3ccccc3C2)cc1` (centres unmarked) [drawing 138] registered a T/C % of 98%. On the same count and under the same terms, the result for `c1ccc(C(c2nnnn2C2CCCCC2)N2CCc3ccccc3C2)cc1` (centres unmarked) [drawing 120] reads 112%. On the same count and under the same terms, in the case of `Fc1ccc(C(c2nnnn2CCc2ccccc2)N2CCc3ccccc3C2)cc1` (centres unmarked) it was 103%; in that of `COCCn1nnnc1C(c1ccc(F)cc1)N1CCc2ccccc2C1` (centres unmarked), 96%. Consider `COc1cc(C(c2nnnn2CCc2ccccc2)N2CCc3ccccc3C2)ccc1O` (centres unmarked), for which the T/C % is reported as 91%. Turning to `Cc1ccc(S(=O)(=O)Cn2nnnc2C(c2ccc(C(F)(F)F)cc2)N2CCc3ccccc3C2)cc1` (centres unmarked), the T/C % was found to be 102%.

In turn, `COc1ccc(C(c2nnnn2C2CCCCC2)N2CCc3ccccc3C2)cc1` (centres unmarked) yielded a T/C % of 111%.

On to `Cc1ccc(C(c2nnnn2Cc2ccc(F)cc2)N2CCc3ccccc3C2)cc1` (centres unmarked), for which the T/C % is 117%. On the same count and under the same terms, the result for `CCC(C)(C)n1nnnc1C(c1cc(OC)ccc1O)N1CCc2ccccc2C1` (centres unmarked) reads 100%; that for `COc1ccc(C(c2nnnn2Cc2ccc(F)cc2)N2CCc3ccccc3C2)cc1OC` (centres unmarked), 96%; that for `Cc1ccc(Cn2nnnc2C(c2ccc(F)cc2)N2CCc3ccccc3C2)cc1` (centres unmarked), 106%. As for `Cc1ccc(C(c2nnnn2CCc2ccccc2)N2CCc3ccccc3C2)cc1` (centres unmarked), the T/C % amounted to 108%.

Compound `c1ccc(CCn2nnnc2C(c2ccccc2)N2CCc3ccccc3C2)cc1` (centres unmarked) [drawing 106] yielded a T/C % of 128%. Still for that read-out and setting: in the case of `COc1cc(C(c2nnnn2Cc2ccccc2)N2CCc3ccccc3C2)ccc1O` (centres unmarked) it was 94%; in that of `COc1ccc(C(c2nnnn2C2CCCC2)N2CCc3ccccc3C2)cc1OC` (centres unmarked), 93%. With `Fc1ccc(C(c2nnnn2C2CCCC2)N2CCc3ccccc3C2)cc1` (centres unmarked), the T/C % is 108%. The same measure, in the same setting: in the case of `Cc1ccc(Cn2nnnc2C(c2ccc(Cl)cc2)N2CCc3ccccc3C2)cc1` (centres unmarked) it was 109%. Same read-out and setting: in the case of `Cc1ccc(Cn2nnnc2C(c2ccccc2)N2CCc3ccccc3C2)cc1` (centres unmarked) it was 117%.
